{
  "source": "patent US8815900B2",
  "about": "“Compounds and compositions for reducing lipid levels” (CVI Pharmaceuticals Limited, priority 2007, dated 2014)",
  "key": {"[1]": {"test_system": "PCSK9 mRNA expression in HepG2 cells", "assay": "PCSK9 mRNA expression in HepG2 cells, quantitative real-time RT-PCR", "type": "cell-based, Human", "conditions": "24 hours, indicated concentrations (FIG. 19B)", "experimental": "The effects of compounds of Formula I, II, III, and IV on the inhibition of PCSK9 mRNA expression was examined (Horton J D, Cohen J C, Hobbs H H. “Molecular biology of PCSK9: its role in LDL metabolism” TRENDS in Biochemical Sciences 2007; 32:71-77; Cameron J, Ranheim T, Kulseth M A, Leren T P, Berge K E. “Berberine decreases PCSK9 expression in HepG2 cells” Atherosclerosis, 2008 online publication). HepG2 cells were treated with new compounds individually at 10 uM dose for 24 hours. Total RNA was harvested for quantitative real-time RT-PCR analysis using method described in Example 16B. The fold activity was derived by dividing the amount of normalized PCSK9 mRNA in compound-treated cells over the amount of PCSK9 mRNA in untreated control cells. In these experiments, berberine chloride (10 uM) was included for comparison (see FIG. 18).\nTotal RNA was harvested for quantitative real-time RT-PCR analysis using method described in Examples 16B. The fold activity was derived by dividing the amount of normalized LDLR or PCSK9 mRNA in compound-treated cells over the amount of LDLR or PCSK9 mRNA in untreated control cells."}, "[2]": {"test_system": "LDLR mRNA expression in HepG2 cells", "assay": "LDLR mRNA expression in HepG2 cells, quantitative real-time RT-PCR", "type": "cell-based, Human", "conditions": "24 hours, indicated concentrations (FIG. 19A)", "experimental": "In yet another experiment, HepG2 cells were treated with various compounds for 24 hours at the indicated doses. Total RNA was isolated and 2 μg was used to generate cDNA in a reaction containing random primers and M-MLV at 37° C. for 1 hour in a volume of […] Real-time PCR was performed on the cDNA using MCEP REALPLEX 2 SYSTEM (Eppendorf) and Universal MasterMix (Applied Biosystems). Human LDLR and GAPDH Pre-Developed TaqMan Assay Reagents (Applied Biosystems) were used to assess the levels of mRNA expressions in HepG2. The levels of LDLR mRNA were normalized to that of GAPDH. Each RNA samples was assayed in triplicate. The abundance of LDLR mRNA in untreated cells was defined as 1, and the amounts of LDLR mRNA from compound-treated cells were plotted relative to that value in FIG. 13. The data shown are mean±s.d.\nActivities of some compounds of Formulas I, II, III, and IV on LDLR mRNA expression were determined. HepG2 cells were treated with new compounds individually at a dose less than or equal to 10 μM for 24 hours. Total RNA was harvested for quantitative real-time RT-PCR analysis using the method described in Example 16B. […] In these experiments, berberine chloride was included for comparison.\nQuantitative real-time RT-PCR was conducted, and triplicate was assayed in each RNA sample. The data are mean value of triplicates.\nTotal RNA was harvested for quantitative real-time RT-PCR analysis using method described in Examples 16B."}},
  "data": [
    {"smiles": "COc1cc2c(cc1OC)C1Cc3ccc(OC)c(OS(=O)(=O)c4ccccc4)c3CN1CC2", "note": "(centres unmarked) [Compound 91, 2,3,10-trimethoxy-5,6,7,8,13,13a-hexahydroiso-quinolino[2,1-b]isoquinolin-9-yl benzenesulfonate]", "values": [
      {"measurement": "PCSK9 mRNA expression", "setting": "[1]", "value": "inhibits"},
      {"measurement": "LDLR mRNA expression", "setting": "[2]", "value": "dose-dependently increases"}
    ]}
  ]
}
